According to ChEMBL document CHEMBL3351759, “Synthesis and antitumor activity of novel 3-oxo-23-hydroxybetulinic acid derivatives” (Eur J Med Chem, 2014):

Tests used:
Assay type in all cases: functional, cell-based
[1] = Antiproliferative activity against human SF763 cells after 72 hrs MTT assay; details: SF763, 72 h
HeLa = test: Antiproliferative activity against human HeLa cells after 72 hrs MTT assay
[2] = Antiproliferative activity against human HL60 cells after 72 hrs MTT assay; details: HL-60, 72 h
[3] = Antiproliferative activity against human Bel7402 cells after 72 hrs MTT assay; details: Bel-7402, 72 h
B16 = test: Antiproliferative activity against mouse B16 cells after 72 hrs MTT assay; details: B16, 72 h

Row | IC50 (HeLa) [µM] | IC50 (B16) [µM] | Structure (SMILES) | IC50 [1] [µM] | IC50 [2] [µM] | IC50 [3] [µM]
1 | 70.8 | 47.9 | C=C(C)[C@@H]1CC[C@]2(C(=O)O)CC[C@]3(C)[C@H](CC[C@@H]4[C@@]5(C)C[C@H](CO)[C@H](O)[C@@](C)(CO)[C@@H]5CC[C@]43C)[C@@H]12 | 50.2 | 69 | 59.1
2 | 61.5 | 39 | C=C(C)[C@@H]1CC[C@]2(C(=O)O)CC[C@]3(C)[C@H](CC[C@@H]4[C@@]5(C)C[C@H](COC(C)=O)[C@H](OC(C)=O)[C@@](C)(COC(C)=O)[C@@H]5CC[C@]43C)[C@@H]12 | 46.1 | 59.9 | 50.2
3 | 51.4 | 30.5 | C=C(C)[C@@H]1CC[C@]2(C(=O)OCc3ccccc3)CC[C@]3(C)[C@H](CC[C@@H]4[C@@]5(C)C[C@H](CO)[C@H](O)[C@@](C)(CO)[C@@H]5CC[C@]43C)[C@@H]12 | 39.1 | 47.9 | 41.7
4 | 67.8 | 36.9 | C=C(C)[C@@H]1CC[C@]2(C(=O)O)CC[C@]3(C)[C@H](CC[C@@H]4[C@@]5(C)C[C@H](O)[C@H](O)[C@@](C)(CO)[C@@H]5CC[C@]43C)[C@@H]12 | 53.9 | 66.3 | 56.8
5 | 59.1 | 30.5 | C=C(C)[C@@H]1CC[C@]2(C(=O)O)CC[C@]3(C)[C@H](CC[C@@H]4[C@@]5(C)C[C@H](OC(C)=O)[C@H](OC(C)=O)[C@@](C)(COC(C)=O)[C@@H]5CC[C@]43C)[C@@H]12 | 45.8 | 58.1 | 49.6
6 | 46 | 21.6 | C=C(C)[C@@H]1CC[C@]2(C(=O)OCc3ccccc3)CC[C@]3(C)[C@H](CC[C@@H]4[C@@]5(C)C[C@H](OC(C)=O)[C@H](OC(C)=O)[C@@](C)(COC(C)=O)[C@@H]5CC[C@]43C)[C@@H]12 | 32.1 | 46.1 | 34.5
7 | 50.4 | 26.4 | C=C(C)[C@@H]1CC[C@]2(C(=O)OCc3ccccc3)CC[C@]3(C)[C@H](CC[C@@H]4[C@@]5(C)C[C@H](O)[C@H](O)[C@@](C)(CO)[C@@H]5CC[C@]43C)[C@@H]12 | 33.5 | 49.9 | 39.6
8 | 20 | 11.3 | C=C(C)[C@@H]1CC[C@]2(C(=O)O)CC[C@]3(C)[C@H](CC[C@@H]4[C@@]5(C)C=C(O)C(=O)[C@@](C)(CO)[C@@H]5CC[C@]43C)[C@@H]12 | 14.3 | 22 | 19.6
9 | 24.1 | 15 | C=C(C)[C@@H]1CC[C@]2(C(=O)O)CC[C@]3(C)[C@H](CC[C@@H]4[C@@]5(C)C=C(OC(C)=O)C(=O)[C@@](C)(COC(C)=O)[C@@H]5CC[C@]43C)[C@@H]12 | 18.9 | 29.8 | 25.4
10 | 11.7 | 9.02 | C=C(C)[C@@H]1CC[C@]2(C(=O)Oc3ccc(C#N)cc3)CC[C@]3(C)[C@H](CC[C@@H]4[C@@]5(C)CCC(=O)[C@@](C)(COC(C)=O)[C@@H]5CC[C@]43C)[C@@H]12 | 9.11 | 11.6 | 9.23
11 | 17.1 | 10.7 | C=C(C)[C@@H]1CC[C@]2(C(=O)NCC(=O)OC)CC[C@]3(C)[C@H](CC[C@@H]4[C@@]5(C)CCC(=O)[C@@](C)(COC(C)=O)[C@@H]5CC[C@]43C)[C@@H]12 | 13.6 | 19.2 | 15.6
12 | 24.4 | 18.1 | C=C(C)[C@@H]1CC[C@]2(C(=O)OCCO)CC[C@]3(C)[C@H](CC[C@@H]4[C@@]5(C)CCC(=O)[C@@](C)(COC(C)=O)[C@@H]5CC[C@]43C)[C@@H]12 | 22.1 | 31.1 | 27.4
13 | 10.3 | 8.16 | C=C(C)[C@@H]1CC[C@]2(C(=O)N3CCOCC3)CC[C@]3(C)[C@H](CC[C@@H]4[C@@]5(C)CCC(=O)[C@@](C)(COC(C)=O)[C@@H]5CC[C@]43C)[C@@H]12 | 10.1 | 12.1 | 10.5
14 | 32.1 | 17.1 | C=C(C)[C@@H]1CC[C@]2(C(=O)O)CC[C@]3(C)[C@H](CC[C@@H]4[C@@]5(C)CCC(=O)[C@@](C)(COC(C)=O)[C@@H]5CC[C@]43C)[C@@H]12 | 28.9 | 30.2 | 29.4
15 | 31 | 14.7 | C=C(C)[C@@H]1CC[C@]2(C(=O)O[C@@H]3O[C@H](CO)[C@@H](O)[C@H](O)[C@H]3O)CC[C@]3(C)[C@H](CC[C@@H]4[C@@]5(C)CCC(=O)[C@@](C)(CO)[C@@H]5CC[C@]43C)[C@@H]12 | 21.4 | 26.6 | 22.1
16 | 22.8 | 11.8 | C=CCOC(=O)[C@]12CC[C@@H](C(=C)C)[C@@H]1[C@H]1CC[C@@H]3[C@@]4(C)CCC(=O)[C@@](C)(CO)[C@@H]4CC[C@@]3(C)[C@]1(C)CC2 | 15.1 | 21.8 | 19
17 | 15.2 | 10 | C=C(C)[C@@H]1CC[C@]2(C(=O)OCc3ccc(-c4ccccc4C#N)cc3)CC[C@]3(C)[C@H](CC[C@@H]4[C@@]5(C)CCC(=O)[C@@](C)(CO)[C@@H]5CC[C@]43C)[C@@H]12 | 10.1 | 14.3 | 10.3
18 | 37.1 | 19.4 | C=C(C)[C@@H]1CC[C@]2(C(=O)OCC)CC[C@]3(C)[C@H](CC[C@@H]4[C@@]5(C)CCC(=O)[C@@](C)(CO)[C@@H]5CC[C@]43C)[C@@H]12 | 28.9 | 31.9 | 30.9
19 | 40.8 | 25.7 | C=C(C)[C@@H]1CC[C@]2(C(=O)OCC(=O)OCC)CC[C@]3(C)[C@H](CC[C@@H]4[C@@]5(C)CCC(=O)[C@@](C)(CO)[C@@H]5CC[C@]43C)[C@@H]12 | 24.7 | 37.1 | 30.7
20 | 26.1 | 14.1 | C=C(C)[C@@H]1CC[C@]2(C(=O)OCc3ccccc3)CC[C@]3(C)[C@H](CC[C@@H]4[C@@]5(C)CCC(=O)[C@@](C)(CO)[C@@H]5CC[C@]43C)[C@@H]12 | 19.5 | 23.7 | 20.1
21 | 40.8 | 23.8 | C=C(C)[C@@H]1CC[C@]2(C(=O)O)CC[C@]3(C)[C@H](CC[C@@H]4[C@@]5(C)CC/C(=N\O)[C@@](C)(CO)[C@@H]5CC[C@]43C)[C@@H]12 | 31.8 | 36.9 | 32.1
22 | 44.3 | 33.3 | C=C(C)[C@@H]1CC[C@]2(C(=O)O)CC[C@]3(C)[C@H](CC[C@@H]4[C@@]5(C)CC/C(=N\NS(=O)(=O)c6ccc(C)cc6)[C@@](C)(CO)[C@@H]5CC[C@]43C)[C@@H]12 | 25.2 | 46.3 | 39.4
23 | 21.9 | 16.2 | C=C(C)[C@@H]1CC[C@]2(C(=O)OCc3ccccc3)CC[C@]3(C)[C@H](CC[C@@H]4[C@@]5(C)CC/C(=N\NS(=O)(=O)c6ccc(C)cc6)[C@@](C)(CO)[C@@H]5CC[C@]43C)[C@@H]12 | 18.4 | 29.1 | 26.4
24 | 30 | 17.8 | C=C(C)[C@@H]1CC[C@]2(C(=O)OCC(=O)OCC)CC[C@]3(C)[C@H](CC[C@@H]4[C@@]5(C)CC/C(=N\O)[C@@](C)(CO)[C@@H]5CC[C@]43C)[C@@H]12 | 26.1 | 33.7 | 30.6
25 | 23.8 | 17.4 | C=C(C)[C@@H]1CC[C@]2(C(=O)OCC(=O)O)CC[C@]3(C)[C@H](CC[C@@H]4[C@@]5(C)CC/C(=N\O)[C@@](C)(CO)[C@@H]5CC[C@]43C)[C@@H]12 | 17.5 | 30.5 | 27.2
26 | 31.7 | 17.6 | C=C(C)[C@@H]1CC[C@]2(C(=O)OCC)CC[C@]3(C)[C@H](CC[C@@H]4[C@@]5(C)CC/C(=N\O)[C@@](C)(CO)[C@@H]5CC[C@]43C)[C@@H]12 | 28.6 | 31.6 | 30.8
27 | 25 | 13.1 | C=CCOC(=O)[C@]12CC[C@@H](C(=C)C)[C@@H]1[C@H]1CC[C@@H]3[C@@]4(C)CC/C(=N\O)[C@@](C)(CO)[C@@H]4CC[C@@]3(C)[C@]1(C)CC2 | 15.5 | 24.1 | 22.6

Row | Structure (SMILES) | IC50 (HeLa) [µM] | IC50 (B16) [µM] | IC50 [1] [µM] | IC50 [2] [µM] | IC50 [3] [µM]
28 | COc1cccc2c1C(=O)c1c(O)c3c(c(O)c1C2=O)C[C@@](O)(C(=O)CO)C[C@@H]3O[C@H]1C[C@H](N)[C@H](O)[C@H](C)O1 [DOXORUBICIN] | 0.21 | 0.18 |  |  | 0.22
